Take `CN1CC=C(c2c[nH]c3ccc(-c4cnc5[nH]cc(C(=O)C(C)(C)C)c5n4)cc23)CC1`: the melting point (commonly the temperature of the solid-liquid transition) lay in the range of 263 to 265 °C.

`N=C(NCc1cccc(F)c1)N[N+](=O)[O-]` had a melting point of 177 to 179 °C.

Regarding `CCCc1c(C(OC)OC)cc([N+](=O)[O-])c(OC)c1OC`, the melting point fell in the range of 52.1 to 54 °C.

Molecule `O=C1C(=O)c2ccccc2C2=C1SCC1(CCN(CCCCc3ccccc3)CC1)O2` had a melting point of 145 to 147 °C.

With `N#Cc1ccc2nc(C(=O)NCc3ccnc(OCC4CCOC4)c3)[nH]c(=O)c2c1` (centres undefined), the melting point lay within 230 to 233 °C.

As for `COc1ccc2[nH]c(SCc3ncc(C)c(N4CCCC4)c3Cl)nc2c1`, the melting point lay within 152 to 158 °C.

Molecule `NC(=O)C[C@H](NC(=O)OCc1ccccc1)C(=O)N[C@@H](Cc1ccccc1)[C@H](O)C(=O)O` yielded a melting point of 225 to 227 °C.

Molecule `Cn1ncc(/C=C/C(=O)Nc2ccc(CN3C(=O)COC3=O)cc2)c1-c1ccc(F)cc1` had a melting point of 239 to 240 °C.

Consider `N#Cc1ncc(NCCO)nc1Br`, for which the melting point lay within 158 to 160 °C.

The molecule `CCC(C)(C)Nc1c(NCc2c(C)cccc2C)c(=O)c1=O` displayed a melting point of 227 to 231 °C.

Molecule `Cc1nc(-c2ccc(C(=O)O)s2)no1` had a melting point of 218 to 220 °C.

Turning to `CC1(C)OCCC2CC(=O)N21` (centres undefined), the melting point was 60 to 61 °C.

The molecule `N#Cc1c(N2CCc3ccccc3CC2)nc(C2CC2)[nH]c1=O` yielded a melting point of more than 200 °C.

For the molecule `CC(C)(C)OC(=O)CCc1ccc(-c2nc(=O)c3ccccc3s2)nc1C#N`, the melting point fell in the range of 196 to 197 °C.

In turn, `O=c1[nH]c2ccccc2n1CCN1CCN(c2cc(O)cc(C(F)(F)F)c2)CC1` came in with a melting point of 170 °C.

For the molecule `CCc1nccn1-c1nc(-c2ccc(Cl)cc2)c(CCCOc2ccccc2OC)o1`, the melting point was in the range of 78 to 79 °C.

The molecule `CCOC(=O)c1nc(N)nc(N)c1-c1ccc(Cl)cc1Cl` returned a melting point of 178 °C.

As to `COC(=O)C12COc3ccccc3C1NN(C(=O)Nc1ccc(C(F)(F)F)cc1)C2` (centres undefined), the melting point was 211 to 212 °C.

The molecule `CCCCCS(=O)(=O)NC(=O)/C=C/c1ccc(OCC(O)COC(C)C)cc1Oc1ncc(C(F)(F)F)cc1Cl` (centres undefined) gave a melting point of 86 to 88 °C.

In turn, `O=C(O)c1cc(CCCBr)ccc1O` displayed a melting point of 68 to 73 °C.

The molecule `COc1ccc(NCc2cc(OC)c(OC)c(OC)c2)cc1` showed a melting point of 73 to 74 °C.

Take `COc1cc(CNC(=O)c2nc3scc(COCc4ccc(C(=O)O)cc4)c3c(=O)[nH]2)ccn1`: the melting point lay in the range of 240 to 242 °C.

The molecule `Cc1sc2c(Br)c3ccccc3c(-c3cc(Br)c(O)c([N+](=O)[O-])c3)c2c1C` had a melting point of 129 to 130 °C.

As to `Cc1cccc2c(=O)[nH]c(C3CCN(CCCO)CC3)cc12`, the melting point lay in the range of 197 to 199 °C.

As to `CC(C)(C)Nc1ccccc1C(CCC1CCCCC1)C(=O)c1cccc(Cl)c1` (centres undefined), the melting point fell in the range of 150 to 152 °C.

The molecule `O=C1NCCN1c1ccc(C2CCN(C(=O)C(F)(F)F)CC2)cc1` returned a melting point of 198 to 201 °C.

In the case of `CCCCCCCCCCCCCCCC(=O)OCC(F)(F)Cn1nc(C)c(-c2ccc3c(c2)NC(=O)CO3)c1-c1ccc(F)cc1`, the melting point was 106 °C.

On to `O=C(Nc1cc2ncc(CN3CCCC3)cc2cc1N1CCCC1)c1ccc(Br)cc1`, for which the melting point lay in the range of 171 to 173 °C.

As for `CC(=O)c1ccc(NS(C)(=O)=O)c(C(=O)c2ccc(F)cc2F)c1`, the melting point lay within 114 to 117 °C.

In turn, `Cc1oc2c(Br)cc(C3CCN(Cc4ccccc4)CC3)cc2c1C` registered a melting point of 86 to 91 °C.

Take `O=C(Cc1ccc([N+](=O)[O-])cc1)c1ccc([N+](=O)[O-])cc1`: the melting point is 131 to 133 °C.

`O=S(=O)(c1ccc(F)cc1)N1CCCC1c1ccsc1` (racemic) displayed a melting point of 135 °C.

The molecule `Cc1ccc(C=CCN2CCc3nc(N)sc3CC2)cn1` had a melting point of 180 to 184 °C.

For the molecule `COc1cc(-c2nn(C)c(C(N)=O)c2C)c(F)cc1Cl`, the melting point lay within 224 to 226 °C.

Regarding `Sc1ccc(-c2ccc(-c3ccc(S)c(S)c3)cc2)cc1S`, the melting point is 171 to 172 °C.

`CC(=O)NCC1CN(c2ccc(N3CCN(c4nnc(C(F)(F)F)s4)CC3)c(F)c2)C(=O)O1` (centres undefined) came in with a melting point of 255 to 257 °C.

Take `CCCCNS(=O)(=O)CC(O)C(O)C(CC1CCCCC1)NC(=O)c1ccc(O)nc1` (centres undefined): the melting point is 247 to 252 °C.

`ON=C(Cc1ccccc1)c1cccnc1`: the melting point lay in the range of 122 to 126 °C.

Consider `CCOC(=O)CC(NC(=O)c1cccc(Cl)c1)C(=O)c1ccsc1` (centres undefined), for which the melting point was in the range of 63 to 65 °C.

In the case of `C1=C(c2ccncc2)CCC2(C1)OCCO2`, the melting point lay in the range of 67 to 70 °C.

On to `Cc1ccc(CSc2nc3cscc3n2C(=O)OCc2ccccc2)nc1`, for which the melting point was in the range of 103 to 104 °C.

`Nc1nc(=O)n(S(=O)(=O)c2ccc(Cl)cc2)cc1F`: the melting point lay within 174 to 178 °C.

With `O=C(O)c1oc(=O)c2cc(Cl)c(Cl)cc2c1-c1ccccc1`, the melting point lay in the range of 243 to 244 °C.

For the molecule `CCOC(=O)c1cccc(OCc2ccc3ccccc3c2)c1`, the melting point lay within 45 to 46.5 °C.

`CSC(=C[N+](=O)[O-])N(C)C` showed a melting point of 60 °C.

For `Brc1cccc(-c2csc(Br)n2)c1`, the melting point was in the range of 88 to 90 °C.

In turn, `Cc1[nH]c2ccccc2c1CCN1CCN(NC(=O)c2ccccc2)CC1` returned a melting point of 130 to 133 °C.

`COc1ccc(C(O)CN2CCN(C(c3ccccc3)c3ccccc3)CC2)c(OC)c1OC` (centres undefined): the melting point amounted to 128 °C.

Take `c1ccc(-c2c[nH]nc2-c2ccccc2)cc1`: the melting point lay within 150 to 152 °C.

`CS(=O)(=O)N1CCC(Nc2nc(CCC(F)(F)F)nc(Nc3ccc(F)c(Cl)c3)n2)CC1` yielded a melting point of 192 to 193 °C.

`COC12CC(C)(C)C(OC(C)=O)C(C=C1C)O2` (centres undefined) returned a melting point of 54 to 55 °C.

Turning to `O=C(O)COCC(=O)OCC1CN(C(=O)Oc2ccccc2)CCC1c1ccc(F)cc1` (centres undefined), the melting point was in the range of 144 to 146 °C.

In turn, `COc1ccc(-c2nc(-c3ccc(Cl)c(Cl)c3)ncc2C(=O)N2CCOCC2)cc1OC` had a melting point of 181 °C.

`O=S1(=O)N=CN(C2CC2)c2ccc(C(F)(F)F)cc21` displayed a melting point of 160 to 162 °C.

Molecule `Nc1cc(F)ccc1NC(c1ccccc1)c1ccccc1` displayed a melting point of 120 °C.

As for `O=C(O)COc1ccc(SCc2ccc(OCc3cc(Cl)ccc3Cl)cc2)c2c1CCCO2`, the melting point lay in the range of 98 to 100 °C.

As for `CCS(=O)(=O)c1c(Cl)nc(Cl)nc1Cl`, the melting point is 135 to 136 °C.

Molecule `Clc1nc(-c2ccc3c(c2)CCO3)nc2ccccc12` had a melting point of 186 to 192 °C.

Regarding `O=[N+]([O-])c1cc2nc(O)c(O)nc2cc1C(F)(F)F`, the melting point is more than 300 °C.

Molecule `CCNC(=O)[C@@H]1CCCN1C(=O)[C@H](C)NC(=O)C1CCCCC1` had a melting point of 190 to 192 °C.

Regarding `CCC(=O)Oc1cc([N+](=O)[O-])cc([N+](=O)[O-])c1OC(=O)CC`, the melting point lay within 72 to 73 °C.

`O=C(Nc1ccccc1Sc1ccccc1)N[C@@H](Cc1ccc(NC(=O)c2c(Cl)cccc2Cl)cc1)C(=O)O` yielded a melting point of 220 °C.

As to `CC1CCc2c(F)c(F)cc3c(=O)[nH]c(=O)n1c23` (centres undefined), the melting point fell in the range of 212 to 214 °C.

Turning to `COc1ccc(CCNC(=O)CCCCC(=O)NC2Cc3ccccc3C2)cc1OC`, the melting point fell in the range of 162 to 164 °C.

(Values after a melting point compilation (Tetko et al.; mined from patent text by program, amines drawn as free bases though some values may be those of a salt).)
